Measurements taken from patent US20190262457A1, “NOVEL ALKYLATING AGENT” (CHIBA-PREFECTURE, priority 2016, published 2019).

What was measured:
[1] = tested on: subcutaneously transplanted RKO tumor; experiment: Tumor volume in RKO-transplanted humanized NSG mice; assay type: in vivo; settings: humanized NSG mouse
Experimental: (§1) 1×10^7 cells of human PBMC (Precision Bioservices Inc.) were intravenously transplanted to each NSG mouse (NOD.Cg-Prkdc^scidI/2rg^tm1Wj1/SzJ; Charles River Laboratories Japan, Inc.) to prepare a humanized NSG mouse. One week after the PBMC transplantation, 1×10^7 RKO cells (ATCC) were subcutaneously transplanted to each humanized NSG mouse. After the transplantation, CCC07-01 was intravenously administered at 2.3 or 9.2 mg/kg to the mouse when tumorigenesis was able to be confirmed. The tumor size was measured over time, and the tumor volume (mm^3) was calculated according to the expression: Tumor volume=[…]. One week after the CCC07-01 administration, the spleen was harvested and homogenized in 2% FBS/PBS to prepare a cell suspension. The spleen cells were stained with a fluorescently labeled anti-human CD4 antibody, anti-human CD8 antibody and anti-human Foxp3 antibody and analyzed for the numbers of cytotoxic T cells (CD8-positive cells) and regulatory T cells (Treg: CD4-positive and Foxp3-positive cells) using a flow cytometer. Statistical processing was performed by the Mann-Whitney U test, and the significance level was set to P<0.05.

CTLA-4 gene = experiment: Experiment to silence CTLA-4 gene (semi-quantitative RT-PCR), CCC07-01; assay type: cell-based, human; settings: A2058 cells, 10 nM, 24 hours
Experimental: A2058 or MIA PaCa-2 cells were cultured in a 6-well plate. On the next day, the cells were treated with 0, 1, or 10 nM CCC07-01 for 24 hours. The cells were collected, and total RNA was extracted therefrom. The extraction employed RNeasy Plus Mini Kit (Qiagen N.V., CA). Next, cDNA was prepared by reverse transcription with the extracted RNA as a template according to Super Script VILO cDNA Synthesis kit (Invitrogen Corp., CA). RT-PCR was performed with the cDNA as a template under the following conditions: the conditions involved denaturation at 95° C. for 2 minutes and then 33 cycles each involving 95° C. for 30 seconds, 60° C. for 30 seconds, and 72° C. for 30 seconds, followed by elongation reaction at 72° C. for 5 minutes. For a control, RT-PCR of GAPDH was performed using the same cDNA as above. The conditions for GAPDH involved denaturation at 95° C. for 2 minutes and then 22 cycles each involving 95° C. for 30 seconds, 55° C. for 30 seconds, and 72° C. for 30 seconds, followed by elongation reaction at 72° C. for 5 minutes. Each PCR product was electrophoresed on 2% agarose and then stained with ethidium bromide. The concentration of the band of the PCR product of CTLA-4 was calculated with the GAPDH band as a control using Image J. The concentrations of the PCR products for each concentration of PIP were compared for quantification.

[2] = tested on: cytotoxic T cells (CD8-positive cells) and regulatory T cells (Treg); experiment: Ratio of cytotoxic T cells to Treg in the spleen of RKO-transplanted humanized NSG mice (flow cytometer); assay type: in vivo, mouse; settings: one week after administration
Experimental: as §1

PD-L1 gene = experiment: Experiment to silence PD-L1 gene (RT-PCR / real-time PCR), CCC07-01; assay type: cell-based, human; settings: RKO cells, 10 nM, 24 hours
Experimental: (§2) RKO cells were cultured in a 6-well plate. On the next day, the cells were treated with 0, 1, 10, or 100 nM CCC07-01 for 24 hours. The cells were collected, and total RNA was extracted therefrom. The extraction employed RNeasy Plus Mini Kit (Qiagen N.V., CA). Next, cDNA was prepared by reverse transcription with the extracted RNA as a template according to Super Script VILO cDNA Synthesis kit (Invitrogen Corp., CA). RT-PCR was performed with the cDNA as a template under the following conditions: the conditions for PD-L1 involved denaturation at 95° C. and then 25 cycles each involving 95° C. for 30 seconds, 60° C. for 30 seconds, and 72° C. for 30 seconds, followed by elongation reaction at 72° C. for 5 minutes. For a control, RT-PCR of GAPDH was performed using the same cDNA as above. The conditions for GAPDH involved denaturation at 95° C. and then 22 cycles each involving 95° C. for 30 seconds, 55° C. for 30 seconds, and 72° C. for 30 seconds, followed by elongation reaction at 72° C. for 5 minutes.
Each RT-PCR product was electrophoresed on 2% agarose and then stained with ethidium bromide. qPCR was further performed. […] A relative expression level was quantified with GAPDH as a control.

PD-1 gene = experiment: Experiment to silence PD-1 gene (RT-PCR / real-time PCR); assay type: cell-based, human; settings: SW480 cells, 100 nM, 6 hours
Experimental: as §2, with “SW480” for “RKO”, “6” for “24”, “PD-1” for “PD-L1”, “33” for “25”, “56°” for “60°”
Each RT-PCR product was electrophoresed on 2% agarose and stained with ethidium bromide. qPCR was further performed. […] A relative expression level was quantified with GAPDH as a control.

**Q.** With `CC(=O)Nc1cn(C)c(C(=O)Nc2cc(C(=O)Nc3cn(C)c(C(=O)Nc4cn(C)c(C(=O)NCCC(=O)Nc5cc(C(=O)Nc6cc(C(=O)NCCCC(=O)Nc7cc(C(=O)Nc8cn(C)c(C(=O)NCCC(=O)Nc9cc(C(=O)Nc%10cc(C(=O)Nc%11ccc%12[nH]c(C(=O)N%13CC(CCl)c%14c%13cc(O)c%13ccccc%14%13)cc%12c%11)n(C)c%10)n(C)c9)n8)n(C)c7)n(C)c6)n(C)c5)n4)n3)n(C)c2)n1` (stereo not shown) [CCC07-01] as the molecule, how does the T/C ratio ([1]; 2.3 mg/kg intravenous) read?
**A.** The T/C ratio was 56.0%.

**Q.** What about the T/C ratio ([1]; 9.2 mg/kg intravenous) of the same molecule?
**A.** The T/C ratio was 41.5%.

**Q.** And the “expression of CTLA-4” value (CTLA-4 gene)?
**A.** Its value is “markedly decreased”.

**Q.** What about the “CD8-positive cell/Treg ratio in the spleen” value ([2]; 2.3 mg/kg intravenous) of the same molecule?
**A.** Its value is 116.5.

**Q.** And the “CD8-positive cell/Treg ratio in the spleen” value ([2]; 9.2 mg/kg intravenous)?
**A.** Its value is 323.2.

**Q.** And the “expression of PD-L1” value (PD-L1 gene)?
**A.** The value was “markedly decreased”.

**Q.** What about the “expression of PD-1” value (PD-1 gene) of the same molecule?
**A.** Its value is “markedly decreased”.
